In patent US20240217969A1, “SUBSTITUTED PYRROLE CARBOXAMIDES, PROCESS FOR THEIR PREPARATION AND THEIR USE AS KINASE INHIBITORS” (priority 2021, published 2024):

What was measured:
[1] = molecular target: Cdc7 (Homo sapiens, UniProt O00311); experiment: Cdc7 biochemical assay, ADPGlo assay format
Experimental: The biochemical activity of compounds was determined by incubation with specific enzymes and substrate, followed by quantification of the ADP product. Compounds were 4-fold serially diluted from 10 to 0.0006 uM; in the case of the pre-incubation step, the enzyme is added to the inhibitor solution and the mixture is left to incubate for 30 minutes at room temperature (r.t.). The reaction started with the addition of the substrate and the ATP, when the enzyme was already present in the preincubation step, or substrate, ATP and enzyme when the preincubation step was not present. The concentrations of ATP, substrate and reaction buffer are described above. The assays were run in a robotized format on 384-well plates. […] At the end of the incubation time, an equal volume of ADPGlo Reagent 1 (Promega) was added to stop the reaction and to remove all unreacted ATP. After 60 minutes, an equal volume of ADPGlo Reagent 2 (Promega) was added to convert ADP in ATP and then ATP in light by luciferase reaction.
y=bottom+(top−bottom)/(1+10^((log IC50−x)*slope))
where x is the logarithm of the inhibitor concentration, y is the response; y starts at bottom and goes to top with a sigmoid shape.

[2] = molecular target: T1, aldehyde oxidases (human liver cytosol) (Homo sapiens, UniProt Q06278); format: in vitro ADME; settings: human liver cytosol 1 mg/mL, 1 μM compound; for HLC % remaining (1 h incub.): 60 min incubation; for HLC % remaining (1 h incub.) / HLC T½ min: pH 7.4, 37° C.; for IntCl (Intrinsic Clearance): half-life approach
T1 construct: added to human liver cytosol (1 mg/mL protein content); from tissue; host or cells: human liver cytosol
Experimental: The aldehyde oxidases involvement in the metabolism of the test item was determined by comparison of the intrinsic clearance values in the presence and absence of aldehyde oxidases inhibitor hydralazine hydrochloride. The purpose of the study was to evaluate the in-vitro intrinsic clearance, the metabolic stability towards aldehyde oxidases (AO) activity and the metabolism of the test item in human liver cytosol. The intrinsic clearance was determined using the half-life approach, by measuring the substrate disappearance along 60 minutes incubation with human liver cytosol. Incubations were performed at the concentration of 1 μM. […] HPLC-MS/MS was used for the detection of the compound left over during the incubation. For intrinsic clearance determination samples were analyzed by high performance liquid chromatography (HPLC) on-line with mass spectrometry (MS) equipment. For the determination of aldehyde oxidases activity (i.e. positive control) of cytosol, phthalazine was incubated with human liver cytosol in presence and absence of the aldehyde oxidases inhibitor. On the day of the incubation, the compound was dissolved in DMSO at the concentration of 10 mM. Aliquots of this solution were added to the test system to a final concentration of […]. The percentage of DMSO in the final incubates was […]. Aliquots of the test item were added to human liver cytosol (1 mg/mL protein content) in Dulbecco's buffer, pH 7.4 at 37° C., to reach final concentration of 1 μM. Incubations were performed in a 48-well plate, under shaking. At 0, 5, 10, 20, 30 and 60 minutes incubation, 50 μL aliquots of the incubate were sampled, poured in 80 μL of ice-cold acetonitrile and 20 μL of 1 μM warfarin in acetonitrile (injection control) and centrifuged at 2500 rpm for 20 minutes. The supernatant was immediately analysed by LC-MS/MS.
The test item was incubated in parallel, in duplicate, at the concentration of 1 μM in Dulbecco's buffer, pH 7.4 for 60 min at 37° C. in the presence of 10 μM hydralazine hydrochloride (aldehyde oxidases inhibitor).
The chemical stability of the test item was checked in parallel by incubating the test item in single at the concentration of 1 μM in Dulbecco's buffer, pH 7.4 for 60 min at 37° C. (negative control).
The intrinsic clearance (CLint) was calculated using the half-life approach. Half-life and CLint were determined from the concentration (area counts) remaining at the different sampling points using the LC-MS/MS method. By plotting the natural logarithmic area of the compound remaining against the time, the slope was calculated by linear regression analysis and converted into the half-life (t½) and CLint expressed as μL/min/mg protein according to the following formulae: […]

T1 sequence (Q06278 whole entry): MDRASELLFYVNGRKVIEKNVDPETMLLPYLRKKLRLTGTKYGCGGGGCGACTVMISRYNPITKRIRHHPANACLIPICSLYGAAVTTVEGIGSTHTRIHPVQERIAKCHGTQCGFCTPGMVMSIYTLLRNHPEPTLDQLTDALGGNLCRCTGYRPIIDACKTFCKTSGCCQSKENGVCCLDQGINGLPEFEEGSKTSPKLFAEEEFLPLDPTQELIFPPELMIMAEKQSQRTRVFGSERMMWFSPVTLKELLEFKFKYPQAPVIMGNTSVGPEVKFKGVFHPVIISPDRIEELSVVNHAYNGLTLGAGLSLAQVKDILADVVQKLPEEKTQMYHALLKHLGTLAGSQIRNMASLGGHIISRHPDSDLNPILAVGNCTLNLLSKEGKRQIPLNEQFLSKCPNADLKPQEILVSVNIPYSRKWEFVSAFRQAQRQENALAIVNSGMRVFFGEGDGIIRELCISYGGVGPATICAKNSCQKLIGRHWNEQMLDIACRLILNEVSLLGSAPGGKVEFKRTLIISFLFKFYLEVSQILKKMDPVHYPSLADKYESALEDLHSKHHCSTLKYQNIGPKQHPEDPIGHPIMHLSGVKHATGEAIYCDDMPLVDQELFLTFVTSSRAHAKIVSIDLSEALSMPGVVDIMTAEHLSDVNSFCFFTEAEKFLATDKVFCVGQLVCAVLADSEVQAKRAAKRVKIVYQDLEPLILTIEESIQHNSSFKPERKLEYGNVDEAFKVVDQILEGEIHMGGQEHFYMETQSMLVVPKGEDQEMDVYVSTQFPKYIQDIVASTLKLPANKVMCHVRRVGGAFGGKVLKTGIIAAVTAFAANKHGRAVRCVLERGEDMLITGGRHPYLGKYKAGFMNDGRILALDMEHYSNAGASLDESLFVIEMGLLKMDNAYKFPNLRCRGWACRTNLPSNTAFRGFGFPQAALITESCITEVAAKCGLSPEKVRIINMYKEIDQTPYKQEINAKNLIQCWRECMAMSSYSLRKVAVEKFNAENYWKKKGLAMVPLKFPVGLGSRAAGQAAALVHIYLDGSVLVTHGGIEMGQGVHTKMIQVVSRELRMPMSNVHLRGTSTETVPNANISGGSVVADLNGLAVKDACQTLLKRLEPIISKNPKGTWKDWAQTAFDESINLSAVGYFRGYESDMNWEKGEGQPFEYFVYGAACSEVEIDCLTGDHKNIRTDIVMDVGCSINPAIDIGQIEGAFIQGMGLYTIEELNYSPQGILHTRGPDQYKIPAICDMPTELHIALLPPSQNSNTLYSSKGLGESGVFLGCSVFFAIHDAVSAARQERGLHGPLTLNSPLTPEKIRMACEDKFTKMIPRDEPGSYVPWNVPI
Sequence of Cdc7 (O00311 whole entry): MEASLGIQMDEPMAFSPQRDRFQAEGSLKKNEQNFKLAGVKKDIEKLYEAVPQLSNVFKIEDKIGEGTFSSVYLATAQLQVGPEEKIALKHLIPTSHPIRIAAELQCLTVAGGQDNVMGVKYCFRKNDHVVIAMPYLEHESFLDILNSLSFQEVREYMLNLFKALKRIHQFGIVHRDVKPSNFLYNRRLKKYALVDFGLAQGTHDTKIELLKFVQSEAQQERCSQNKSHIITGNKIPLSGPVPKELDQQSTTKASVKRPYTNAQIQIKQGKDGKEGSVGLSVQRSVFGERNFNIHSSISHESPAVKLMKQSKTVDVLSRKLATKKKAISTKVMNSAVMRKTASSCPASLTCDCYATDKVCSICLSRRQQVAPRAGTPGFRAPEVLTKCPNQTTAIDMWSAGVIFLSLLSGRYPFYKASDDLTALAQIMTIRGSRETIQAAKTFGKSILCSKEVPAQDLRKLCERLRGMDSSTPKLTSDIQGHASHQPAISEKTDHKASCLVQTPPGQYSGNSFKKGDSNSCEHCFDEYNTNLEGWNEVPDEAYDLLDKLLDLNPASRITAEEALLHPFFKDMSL
Sequence of Cdc7 (Q9UBU7 whole entry partner): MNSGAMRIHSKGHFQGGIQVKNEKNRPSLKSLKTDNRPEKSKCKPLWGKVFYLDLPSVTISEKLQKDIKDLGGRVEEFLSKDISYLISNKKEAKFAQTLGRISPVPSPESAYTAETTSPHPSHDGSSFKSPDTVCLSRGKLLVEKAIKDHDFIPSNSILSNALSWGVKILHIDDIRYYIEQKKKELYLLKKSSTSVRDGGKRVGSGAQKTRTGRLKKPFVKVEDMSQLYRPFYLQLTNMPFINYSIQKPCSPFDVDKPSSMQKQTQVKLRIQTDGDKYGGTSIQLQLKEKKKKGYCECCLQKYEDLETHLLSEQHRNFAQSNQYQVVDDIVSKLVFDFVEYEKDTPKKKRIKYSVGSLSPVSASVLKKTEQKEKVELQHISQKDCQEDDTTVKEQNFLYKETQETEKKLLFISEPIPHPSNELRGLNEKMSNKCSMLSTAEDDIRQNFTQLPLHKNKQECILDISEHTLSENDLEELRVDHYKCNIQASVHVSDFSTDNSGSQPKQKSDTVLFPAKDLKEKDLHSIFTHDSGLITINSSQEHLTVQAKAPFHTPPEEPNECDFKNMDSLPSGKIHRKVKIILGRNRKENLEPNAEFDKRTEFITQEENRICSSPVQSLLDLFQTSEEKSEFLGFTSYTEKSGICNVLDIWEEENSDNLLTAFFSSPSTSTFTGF

Row | SMILES | IC50 [1] [nM] | HLC % remaining (1 h incub.) [2] [%] | IntCl (Intrinsic Clearance) [2] [μL/min/mg protein] | HLC T½ min [2] [h]
1 | NC(=O)c1cc(-c2ccnc3[nH]ccc23)[nH]c1-c1cccc(Cl)c1F [comp 1, 2-(3-chloro-2-fluorophenyl)-5-(1H-pyrrolo[2,3-b]pyridin-4-yl)-1H-pyrrole-3-carboxamide] | 4 | 100 | 2.9 | 3.98
2 | NC(=O)c1cc(-c2ccnc3[nH]ccc23)[nH]c1-c1ccc(Cl)cc1F [comp 2, 2-(4-chloro-2-fluorophenyl)-5-(1H-pyrrolo[2,3-b]pyridin-4-yl)-1H-pyrrole-3-carboxamide] | 3 | 98 | 2.9 | 3.98
3 | NC(=O)c1cc(-c2ccnc3[nH]ccc23)[nH]c1-c1ccc(F)cc1Cl [comp 3, 2-(2-chloro-4-fluorophenyl)-5-(1H-pyrrolo[2,3-b]pyridin-4-yl)-1H-pyrrole-3-carboxamide] | 1 | 97 | 2.9 | 3.98
4 | NC(=O)c1cc(-c2ccnc3[nH]ccc23)[nH]c1-c1ccc(F)cc1F [comp 4, 2-(2,4-difluorophenyl)-5-(1H-pyrrolo[2,3-b]pyridin-4-yl)-1H-pyrrole-3-carboxamide] | 4 | 100 | 2.9 | 3.98
5 | NC(=O)c1cc(-c2ccnc3[nH]ccc23)[nH]c1-c1ccc(C(F)(F)F)cc1Cl [comp 5, 2-[2-chloro-4-(trifluoromethyl)phenyl]-5-(1H-pyrrolo[2,3-b]pyridin-4-yl)-1H-pyrrole-3-carboxamide] | 1 | 100 | 2.9 | 3.98
6 | NC(=O)c1cc(-c2ccnc3[nH]ccc23)[nH]c1-c1cccc(F)c1F [comp 6, 2-(2,3-difluorophenyl)-5-(1H-pyrrolo[2,3-b]pyridin-4-yl)-1H-pyrrole-3-carboxamide] | 5 | 100 | 2.9 | 3.98
7 | NC(=O)c1cc(-c2ccnc3[nH]ccc23)[nH]c1-c1cccc(Cl)c1Cl [comp 7, 2-(2,3-dichlorophenyl)-5-(1H-pyrrolo[2,3-b]pyridin-4-yl)-1H-pyrrole-3-carboxamide] | 1 | 95 | 2.9 | 3.98
8 | Cc1ccc(-c2[nH]c(-c3ccnc4[nH]ccc34)cc2C(N)=O)c(C(F)(F)F)c1 [comp 8, 2-[4-methyl-2-(trifluoromethyl)phenyl]-5-(1H-pyrrolo[2,3-b]pyridin-4-yl)-1H-pyrrole-3-carboxamide] | 3 | 85 | 2.9 | 3.98
9 | NC(=O)c1cc(-c2ccnc3[nH]ccc23)n(CCC(F)(F)F)c1-c1ccc(Cl)cc1Cl [compound 55, 2-(2,4-dichlorophenyl)-5-(1H-pyrrolo[2,3-b]pyridin-4-yl)-1-(3,3,3-trifluoropropyl)-1H-pyrrole-3-carboxamide] | 996 | – | – | –
10 | Cn1c(-c2ccnc3[nH]ccc23)cc(C(N)=O)c1-c1ccc(Cl)cc1Cl [compound 56, 2-(2,4-dichlorophenyl)-1-methyl-5-(1H-pyrrolo[2,3-b]pyridin-4-yl)-1H-pyrrole-3-carboxamide] | 14 | – | – | –
11 | CCn1c(-c2ccnc3[nH]ccc23)cc(C(N)=O)c1-c1ccc(Cl)cc1Cl [compound 57, 2-(2,4-dichlorophenyl)-1-ethyl-5-(1H-pyrrolo[2,3-b]pyridin-4-yl)-1H-pyrrole-3-carboxamide] | 17 | – | – | –
